Measured values published in article PMC11241437, “Structure-Based Analysis of Cefaclor Pharmacokinetic Diversity According to Human Peptide Transporter-1 Genetic Polymorphism” (International Journal of Molecular Sciences, 2024).

Tests used:
clinical = settings: male, human, in vivo, po, 250 mg
Method: Cefaclor bioequivalence results in 24 healthy Korean men obtained from a previous study were reused for the analysis of cefaclor pharmacokinetics according to PEPT1 genetic polymorphisms in this study. Among the previous bioequivalence results, those for the test formulation were excluded, and only the clinical results for the reference drug, cefaclor 250 mg capsule (Eli Lilly and Company, Indianapolis, IN, USA; Lot number: L1692Y1) were used. […] Table S2 presents the demographic information of the subjects, including physiological and biochemical parameters. The determination of clinical biochemical parameter values was performed by serological analysis through a dry automated analyzer. The analytical instrument was a microside VITROS (Ortho Clinical Diagnostics, Raritan, NJ, USA) operated by reflectance spectrophotometry. Information on the selection and progress of clinical trial participants is presented in Supplementary Information S1, and information on clinical trial design and sampling is presented in Supplementary Information S2. The clinical trial protocol was thoroughly reviewed and officially approved (approval number: 112; 09.03.2004) by the Institutional Review Board of the Institute of Bioequivalence and Bridging Study (Gwangju, Republic of Korea). Information on the high-performance liquid chromatography-ultraviolet (HPLC-UV) method used to quantify cefaclor in plasma samples is briefly presented in Supplementary Information S3.
Genetic polymorphism information for all subjects participating in the clinical trial could be obtained using blank plasma samples derived from each subject. The genetic information targeted in this study was SLC15A1 exons 5 and 16 as the PEPT1 coding gene. SNPs in SLC15A1 exons 5 and 16 were analyzed through pyrosequencing and restriction fragment length polymorphism (RFLP) via polymerase chain reaction (PCR), respectively. The target SNPs in SLC15A1 exons 5 and 16 were c.381G>A and c.1287G>C, respectively, and the genetic polymorphism analysis methods for these were presented in Supplementary Information S4.
The results of the analysis of plasma concentration over time after single oral administration of cefaclor 250 mg capsule could be calculated as cefaclor pharmacokinetic parameter values through non-compartmental analysis (NCA). NCA was performed using Phoenix WinNonlin software (version 8.4, Certara Inc., Princeton, NJ, USA). The main calculated pharmacokinetic parameters are area under the curve in a plasma concentration-time graph (AUC), clearance (CL/F), peak plasma drug concentration after administration (Cmax), elimination half-life (T1/2), mean residence time (MRT), time to reach Cmax (Tmax), and volume of the distribution (V/F). Specific calculation methods for pharmacokinetic parameters are presented in Supplementary Information S5. The calculated pharmacokinetic parameter values were classified according to the genetic polymorphisms of SLC15A1 exons 5 and 16 and compared between genotype groups. Comparison of significant differences between the three genotype groups (SLC15A1 exon 5) was performed using one-way analysis of variance (ANOVA), and comparison of significant differences between two genotype groups (SLC15A1 exon 16) was performed using a two-tailed t test. All significance judgments in statistical tests were based on a p value of 0.05. Additionally, differences in pharmacokinetics between groups were confirmed through a graphic comparison of cefaclor plasma concentration profiles between genotypes classified according to genetic polymorphisms of SLC15A1 exons 5 and 16.
Supplementary Information S2
Clinical trial design and sampling
This bioequivalence study was performed as randomized, single-dose, open-label, crossover, and two-way studies (with a washout period of 7 days). Prior to the clinical trial, subjects had a heparin-locked (150 unit/mL) JELCO 22G angio-catheter (Smiths Medical, Minneapolis, […]

PEPT1 = system: PEPT1; design: method as in PMID 9950279; settings: Caco-2; cited from earlier work
[1] = assay type: in vitro ADME; settings: human
Method: Supplementary Information S3
Determination of cefaclor plasma concentrations
Concentrations of unchanged cefaclor in plasma were determined by applying high performance liquid chromatography coupled with an ultraviolet (HPLC-UV), which has been established and validated in previous studies. The LC10 ADvp system (Shimadzu Inc., Kyoto, Japan) was used as an analysis device. Briefly describing the analysis method, plasma samples were pretreated through liquid-liquid extraction using 6% (v/v) trichloroacetic acid and then selectively separated on a Symmetry C18 column (5 μm, 4.6 × 150 mm; Waters Co., Milford, MA, USA) using water (mobile phase A) and methanol (mobile phase B) as mobile phases.
The composition ratio of mobile phases A and B was isocratically eluted at 88:12 (v/v), and the quantification of cefaclor was performed at a wavelength of 265 nm. Cephradine, which has a similar structure to cefaclor, was used as an internal standard (IS), and the retention times in the column for cefaclor and IS were 15 min and 23 min, respectively. The lower limit of quantification was 0.1 μg/mL, and the linear calibration curve was secured with a coefficient of determination of 0.99 or higher up to the concentration range of 10 μg/mL. The […]
calibration curve. […]

SMILES | substrate interaction with PEPT1 (PEPT1) | other results
N[C@@H](C(=O)N[C@@H]1C(=O)N2C(C(=O)O)=C(Cl)CS[C@H]12)c1ccccc1 [cefaclor] | interaction substrate with PEPT1 | AUC (clinical; AUCall): 7590 ± 1520 ng·h/mL; AUC(0-inf) (clinical; AUCinf): 7740 ± 1530 ng·h/mL; Cmax (clinical; Cmax): 6510 ± 1900 ng/mL; MRT (clinical; MRT (mean residence time)): 75.6 ± 11.4 min; half-life (clinical; T1/2 (elimination half-life)): 36 ± 3.6 min; Tmax (clinical; Tmax): 49.2 ± 21 min
CC1=C(C(=O)O)N2C(=O)[C@@H](NC(=O)[C@H](N)c3ccc(O)cc3)[C@H]2SC1 [cefadroxil] | may have substrate interactions with PEPT1 | –
Cn1nnnc1SCC1=C(C(=O)O)N2C(=O)[C@@H](NC(=O)[C@H](O)c3ccccc3)[C@H]2SC1 [cefamandole] | may have substrate interactions with PEPT1 | –
C=CC1=C(C(=O)O)N2C(=O)[C@@H](NC(=O)/C(=N\OCC(=O)O)c3csc(N)n3)[C@H]2SC1 [cefixime] | may have substrate interactions with PEPT1 | –
CO/N=C(\C(=O)N[C@@H]1C(=O)N2C(C(=O)O)=C(COC(N)=O)CS[C@H]12)c1ccco1 [cefuroxime] | may have substrate interactions with PEPT1 | –
CC1=C(C(=O)O)N2C(=O)[C@@H](NC(=O)[C@H](N)c3ccccc3)[C@H]2SC1 [cephalexin] | may have substrate interactions with PEPT1 | –
CC(=O)OCC1=C(C(=O)O)N2C(=O)[C@@H](NC(=O)Cc3cccs3)[C@H]2SC1 [cephalotin] | may have substrate interactions with PEPT1 | –
CC1=C(C(=O)O)N2C(=O)[C@@H](NC(=O)[C@H](N)C3=CCC=CC3)[C@H]2SC1 [cephradine] | may have substrate interactions with PEPT1 | stabilities in plasma samples [1]: 85-115%
